Structures are written as SMILES.

What all share (type): cell-based, human
For one experiment, the system named is dermal fibroblasts. Briefly: Hyaluronan pericellular coat formation by dermal fibroblasts (particle exclusion assay). The source says: (§1) A normal adult skin biopsy (6 mm) was obtained (n=1), with informed consent, from an individual attending the Oral Surgery Clinic, School of Dentistry, Wales College of Medicine, Cardiff. Following the application of a local anaesthetic, the dermal biopsy was collected and adult dermal fibroblast cultures established by single cell suspension technique, following enzymic degradation of the specimen. This technique has previously been reliably used to establish viable primary cultures of both oral and dermal fibroblasts in vitro (Cook et al, 2000; Stephens et al, 2001; 2003). Dermal fibroblasts were cultured in Fibroblast-Serum Containing Medium, containing Dulbecco's Modified Eagle's Medium (DMEM), supplemented with L-glutamine (2 mM), antibiotics (100 U/ml) penicillin G sodium, […] streptomycin sulphate and 0.25 μg/ml amphotericin B) and 10% foetal calf serum (all purchased from Invitrogen Ltd., Paisley, U.K.). Dermal fibroblast cultures were maintained at 37° C., in a 5% CO2/95% air atmosphere, with the culture medium being changed every 2-3 days. Dermal fibroblasts were used between) passage 7-17, for all experiments.
Following trypsinization, dermal fibroblasts were seeded in 53 mm bacteriological grade culture dishes (VWR International Ltd., Leicestershire, U.K.), in PEP005-free, Fibroblast-Serum Containing Medium (2 ml), at a density of 7×10^4 cell/dish. Dermal fibroblasts were maintained at 37° C., in a 5% CO2/95% air atmosphere, overnight, prior to washing in PBS (2×2 ml) and maintenance in serum-free, Fibroblast-Serum Containing Medium (2 ml), containing 0 μg/ml, 0.01 μg/ml, 0.1 μg/ml, 1 μg/ml, 10 μg/ml or 100 μg/ml PEP005, +/−TGF-β1 (10 ng/ml) (three culture dishes per PEP005 concentration). A control was also established, consisting of cells in serum-free, Fibroblast-Serum Containing Medium, containing 1% DMSO. The dermal fibroblasts were maintained at 37° C., in a 5% CO2/95% air atmosphere, for 24 h or 72 h. At 24 h and 72 h, the culture dishes were treated with formalized horse blood erythrocytes (TCS Biosciences Ltd., Buckinghamshire, U.K.). The formalized horse blood erythrocytes were washed in PBS, to remove sodium azide (3×20 ml) and centrifuged at 100 g/7 min, at 4° C. The erythrocyte cell pellet obtained was re-suspended in serum-free, Fibroblast-Serum Containing Medium, to a density of 1×10^8 cells/ml. Aliquots of the erythrocyte cell suspension (500 μl) were supplemented to each culture dish and the dishes agitated, prior to maintenance at 37° C., in a 5% CO2/95% air atmosphere, for 15 min. Zones of erythrocyte exclusion were visualized by light microscopy, using a Zeiss Axiovery 135 Inverted Microscope (Carl Zeiss Ltd., Hertfordshire, U.K.), with a Hamamatsun C5985 chilled CCD camera (Hamamatsu Photonics U.K. Ltd., Hertfordshire, U.K.) and using Openlab Software 3.0.8 (Improvision Ltd., Warwickshire, U.K.). Each experiment was performed on three separate occasions.

For the next experiment, the system named is HAS2. Briefly: HAS2 gene expression by dermal fibroblasts (qPCR). Conditions: non-significant (p>0.05).
From the text: as §1
(§2) Following trypsinization, dermal fibroblasts were seeded in 24-well tissue culture plates, in PEP005-free, Fibroblast-Serum Containing Medium (1 ml), at a cell density of 2.5×10^4 cell/well. Dermal fibroblasts were maintained at 37° C., in a 5% CO2/95% air atmosphere, overnight. At this stage, the culture medium was replaced with Fibroblast-Serum Containing Medium (600 μl), containing 0 μg/ml, 0.01 μg/ml, 0.1 μg/ml, 1 μg/ml, 10 μg/ml or 100 μg/ml PEP005, +/−TGF-β1 (10 ng/ml) (three culture wells per PEP005 concentration). A control was also established, consisting of cells in Fibroblast-Serum Containing Medium, containing 1% DMSO. The dermal fibroblasts were maintained at 37° C., in a 5% CO2/95% air atmosphere, for 24 h or 72 h, prior to washing in PBS (3×1 ml) and Trizol® Reagent (250 μl) added to the cells, for 5 min at room temperature, to induce cell lysis. RNA was extracted by the phenol-chloroform method, as described above, while a cDNA library was generated via random hexamer RT, as described above. RNA (1 μg) was added to 100 µM random hexamer (1 μl), 5×RT Buffer (4 μl), 2.5 mM Deoxynucleoside Triphosphates (dNTPs, 5 μl), 2 μl DTT and Nuclease-Free Water, were added to the reaction (total volume, 20 μl). To denature the RNA, reaction tubes were placed in a GeneAmp PCR System 9700 (Applied Biosystems, Cheshire, U.K.) and heated for 5 min/95° C., prior to cooling to 4° C. Superscript (1 μl) and RNAsin® Ribonuclease Inhibitor (1 μl, Promega, Hampshire, U.K.) were added to each tube, and the tubes subjected to […] at 20° C. for 10 min, 42° C. for 1 h and 95° C. for 5 min, prior to storage at 4° C., until required. As a negative control, RT was also performed, with Nuclease-Free Water replacing the RNA sample.
(§3) qPCR was performed, as described above, with the probe and primers for HAS1, HAS2 and HAS3 (target genes) and the 18s ribosomal RNA (reference gene), designed and supplied by Applied Biosystems. PCR was performed in a final volume of 20 μl/sample, with each reaction mix consisting of cDNA (1 μl), target gene primers and probe (1 μl), Taqman® FAST Universal PCR Master Mix (10 μl, Applied Biosystems), and Nuclease-Free Water (8 μl). PCR amplification was performed, using an initial cycle of 95° C. for 1 s, followed by 40 cycles of 60° C. for 20 s. A cDNA-free control was also included. Again, the comparative CT method was used for relative quantification of gene expression. Each experiment was performed on three separate occasions.
A general note: In qPCR the cycle at which signal appears reflects the starting amount.

The next experiment deals with HAS3. Briefly: HAS3 gene expression by dermal fibroblasts (qPCR).
From the text: as §1, §2, §3

In the case of `C/C=C(/C)C(=O)O[C@H]1C(C)=C[C@]23C(=O)[C@@H](C=C(CO)[C@@H](O)[C@]12O)[C@H]1[C@@H](C[C@H]3C)C1(C)C` [PEP005, ingenol-3-angelate], in the experiment on dermal fibroblasts (PEP005 0.01-10 μg/ml plus TGF-β1 (10 ng/ml), 72 h), the “changes in cellular morphology” value was “consistent with the presence of myofibroblasts”. The “hyaluronan pericellular coat formation” value with dermal fibroblasts (PEP005 0.01-10 μg/ml plus TGF-β1 (10 ng/ml), 72 h, compared to PEP005-free controls) is on record as “even further enhanced”; in the experiment with dermal fibroblasts (PEP005-treated cultures, absence of TGF-β1, 24 h), “little pericellular coat formation”; in the experiment with dermal fibroblasts (PEP005 plus TGF-β1 (10 ng/ml), 24 h, compared to untreated controls and to PEP005 without TGF-β1), “major synergistic effect”. Further, the “morphological changes in fibroblasts” value with dermal fibroblasts (PEP005 0.01-10 μg/ml, absence of TGF-β1, 72 h) is recorded as “consistent with the presence of myofibroblasts”. For the same compound, in the experiment with dermal fibroblasts (PEP005 0.01-10 μg/ml, absence of TGF-β1, 72 h, compared to PEP005-free controls), the “hyaluronan pericellular coat size” value is listed as “increase pericellular coat size”. The HAS2 gene expression entry was “general down-regulation” in the experiment on HAS2 (PEP005 0.01-100 μg/ml plus TGF-β1 (10 ng/ml), 72 h) and “major up-regulation” with HAS2 (PEP005 0.1-10 μg/ml, absence of TGF-β1, 72 h). Further, the HAS2 expression entry is given as “up-regulation” in the experiment with HAS2 (PEP005 0.1-10 μg/ml plus TGF-β1 (10 ng/ml), 24 h) and “stimulatory effect” with HAS2 (PEP005 0.1-10 μg/ml, absence of TGF-β1, 24 h). Moreover, the HAS3 expression result with HAS3 (PEP005 0.01-100 μg/ml plus TGF-β1 (10 ng/ml), 72 h (p>0.05)) is “no significant effects”; with HAS3 (PEP005 0.01-100 μg/ml, absence of TGF-β1, 24 h, non-significant (p>0.05)), “completely abolished”; in the experiment on HAS3 (PEP005 0.1-10 μg/ml plus TGF-β1 (10 ng/ml), 24 h, down-regulation, non-significant (p>0.05)), “barely detectable levels”. The HAS3 gene expression result with HAS3 (PEP005 1-10 μg/ml, absence of TGF-β1, 72 h, non-significant (p>0.05)) is listed as “up-regulation”.
